Where a name gives a salt, the structure may show the parent alone.

Results on four compounds are retold here after patent US20040224954A1, “Substituted 1H-quinoxalin-2-one compounds and substituted 4-aryl- and 4-heteroarylcyclohexane compounds” (priority 2001, published 2004).

In series [1] the test system is Male NMRI mice. The series is described as follows: phenylquinone-induced writhing in mice (analgesic efficacy). It is filed as in vivo. To be noted: 10 mg/kg i.v., phenylquinone i.p. 10 minutes after compound, writhing counted 5-20 minutes after phenylquinone. How it is done: The investigation into analgesic efficacy was performed by phenylquinone-induced writhing in mice (modified after: I. C. Hendershot, J. Forsaith, J. Pharmacol. Exp. There. 125, 237-240 (1959)). The corresponding literature description is hereby introduced as a reference and is deemed to be part of the disclosure.
Male NMRI mice weighing from 25 to 30 g were used for this purpose. Groups of 10 animals per substance dose received, 10 minutes after intravenous administration of the compounds tested, 0.3 ml/mouse of a 0.02% aqueous solution of phenylquinone (phenylbenzoquinone, Sigma, Deisenhofen; solution prepared with addition of 5% of ethanol and stored in a water bath at 45° C.) administered intraperitoneally. The animals were placed individually in observation cages. A push button counter was used to record the number of pain-induced stretching movements (writhing reactions=straightening of the torso with stretching of the rear extremities) for 5-20 minutes after phenylquinone administration. The control was provided by animals which received only physiological common salt solution.
The compounds were tested at the standard dosage of 10 mg/kg. Inhibition of the writhing reactions by a substance was calculated according to the following formula: [formula]
The in-depth investigation into analgesic efficacy was performed using phenylquinone-induced writhing in mice, as described above.

As to `COc1cccc(C2(O)CCC(OC(=O)c3nc4cc(C)c(C)cc4[nH]c3=O)CC2CN(C)C)c1` (centres unmarked) [Example 3, 6,7-dimethyl-3-oxo-3,4-dihydroquinoxaline 2-carboxylic acid [3′-(N,N-dimethylaminomethyl)-4′-hydroxy-4′-(m-methoxyphenyl)-cyclohexyl] ester], in series [1], the “% inhibition of writhing reactions” value is listed as 90%.

Usually melting point stands for the temperature of the solid-liquid transition. Take `COc1cccc(C2(O)CCC(OC(=O)c3nc4cc(Cl)c(Cl)cc4[nH]c3=O)CC2CN(C)C)c1` (centres unmarked) [Example 4, 6,7-dichloro-3-oxo-3,4-dihydroquinoxaline 2-carboxylic acid [3′-(N,N-dimethylaminomethyl)-4′-hydroxy-4′-(m-methoxyphenyl)-cyclohexyl] ester]: the melting point is 175 to 177 °C. In addition, the “% inhibition of writhing reactions” value in series [1] came out at 84%.

For `COc1cccc(C2(O)CCC(NC(=O)c3nc4cc(C)c(C)cc4[nH]c3=O)CC2CN(C)C)c1` (centres unmarked) [Example 1, 6,7-dimethyl-3-oxo-3,4-dihydroquinoxaline 2-carboxylic acid [3′-(N,N-dimethylaminomethyl)-4′-hydroxy-4′-(m-methoxyphenyl)-cyclohexyl]amide hydrochloride], in series [1], the “% inhibition of writhing reactions” value was found to be 72%.

With `COc1cccc(C2(O)CCC(NC(=O)c3nc4cc(Cl)c(Cl)cc4[nH]c3=O)CC2CN(C)C)c1` (centres unmarked) [Example 2, 6,7-dichloro-3-oxo-3,4-dihydroquinoxaline 2-carboxylic acid [3′-(N,N-dimethylaminomethyl)-4′-hydroxy-4′-(m-methoxyphenyl)-cyclohexyl]amide], the “% inhibition of writhing reactions” value in series [1] worked out at 55%.
